Laboratory results reported in patent US4772589A, “Etoposide solution in NMP” (Bristol-Myers, priority 1986, dated 1988).
Converted amounts (≈) assume the structure as drawn.

Assays:
[1] = water, ethanol, ether, chloroform, benzene, ethyl acetate, and carbon disulfide; cited from earlier work
[2] = Crystallization on dilution with water or parenteral vehicle
[3] = Etoposide solubility in various solvents; format: physicochemical
Source text: The high etoposide concentration achievable renders the solution useful as gelatin capsule fill. Table III compares the solubility of etoposide in various solvents.

[4] = oral gelatin capsule vs IV; cited from earlier work

**Q.** For `CN1CCCC1=O` [1-Methyl-2-pyrrolidinone, 1-methyl-2-pyrrolidinone], which Miscibility [1] is on record?
**A.** miscible

**Q.** What does the source list for `COc1cc([C@@H]2c3cc4c(cc3[C@@H](O[C@@H]3O[C@@H]5CO[C@@H](C)O[C@H]5[C@H](O)[C@H]3O)[C@H]3COC(=O)[C@H]23)OCO4)cc(OC)c1O` [etoposide, 4'-demethylepipodophyllotoxin-9-(4,6-O(R)-ethylidine-β-D-glucopyranoside)]?
**A.** Crystallization on dilution with water ([2]; solution in 1-ethyl-2-pyrrolidinone, diluted with water to 0.5-5 mg/ml): rapid deposit of etoposide crystals; Crystallization on dilution with water ([2]; solution in 2-pyrrolidinone, diluted with water to 0.5-5 mg/ml): rapid deposit of etoposide crystals; Crystallization on dilution with water ([2]; solution in dimethylacetamide, diluted with water to 0.5-5 mg/ml): rapid deposit of etoposide crystals; Crystallization on dilution with water ([2]; solution in dimethylformamide, diluted with water to 0.5-5 mg/ml): rapid deposit of etoposide crystals; Crystallization on dilution with water ([2]; solution in dimethylisosorbide, diluted with water to 0.5-5 mg/ml): rapid deposit of etoposide crystals; Crystallization on dilution with water ([2]; solution in ethanol, diluted with water to 0.5-5 mg/ml): rapid deposit of etoposide crystals; Crystallization on dilution with water ([2]; solution in polyethylene glycol-300, diluted with water to 0.5-5 mg/ml): rapid deposit of etoposide crystals; Crystallization on dilution with water ([2]; solution in propylene glycol, diluted with water to 0.5-5 mg/ml): rapid deposit of etoposide crystals; solubility ([3]; 1-methyl-2-pyrrolidinone, organic solvent or mixture, solvent: 1-Methyl-2-pyrrolidinone): > 500 mg/mL; solubility ([3]; benzyl alcohol, organic solvent or mixture, solvent: Benzyl Alcohol): 104 mg/mL (≈ 177 mM); solubility ([3]; dimethylisosorbide, organic solvent or mixture, solvent: Dimethylisosorbide): 320 mg/mL (≈ 544 mM); solubility ([3]; ethanol, organic solvent or mixture, solvent: Ethanol): < 1 mg/mL; solubility ([3]; propylene glycol, organic solvent or mixture, solvent: Propylene Glycol): 11 mg/mL (≈ 18.7 mM); solubility ([3]; water, solvent: Water): 0.1 mg/mL (≈ 0.17 mM); Gelatin capsule dose relative to IV dose for equivalent blood level [4]: twice as high
